Where two headings read alike, the source gives them in different places. Peptide text beside a SMILES is read from it.
Key:
Plk1 PBD [1] = target: T1, Plk1 PBD (Homo sapiens, UniProt P53350); experiment: biochemical; format: binding; design: and Plk1 PBD (Plasmid #41162) (45) linked to a 3× myc tagged; host or cells: HEK293T, crude cytosolic lysate; details: Cell Lysate ELISA IC50 (μM)
Method: HEK293T cells were plated on 10 cm culture dishes at 4M cells per plate. Following 24 h, the cells were transfected with 10 μg of plasmid DNA using 20 μL of TurboFect transfection reagent (Pierce Biotechnology) according to the manufacturer's instructions. Following 24 h, the cells were harvested using trypsin, washed with phosphate-buffered saline (PBS) 7.4 buffer, and lysed in lysis buffer (PBS 7.4+0.5% NP-40+protease/phosphatase inhibitor cocktail (Pierce Biotechnology)) using 3 freeze/thaw cycles. The lysed suspension was centrifuged at 10,000×G for 10 minutes to pellet membrane proteins and nuclei. The supernatant was removed to provide a crude cytosolic lysate containing expressed myc-tagged Plk1 or Plk1 PBD. The total protein concetration was determined using a Bicinchoninic Acid (BCA) assay kit (Pierce Biotechnology).
All assay steps were performed at room temperature with gentle shaking. A biotinylated phosphopeptide (sequence: Biotin-Ahx-PMQS(pT)PLN-NH2) (46-48) was diluted with PBS 7.4 to 1 μM (from a 10 mM dimethylsulfoxide (DMSO) stock solution) and loaded onto the wells of a 96-well Neutravidin-coated plate (Pierce Biotechnology) at 100 μL per well for 1 hour. The wells were washed once with 150 μL PBST (PBS 7.4+0.05% Tween-20), and then 100 μL of 1% bovine serum albumin (BSA) in PBS 7.4 (blocking buffer) were added for 1 hour. The cytosolic lysate containing myc-tagged protein was diluted to 300 μg/mL in PBS 7.4 containing protease/phosphatase inhibitors (Pierce Biotechnology), mixed with competitive inhibitor (from a 10× stock in 5% DMSO/PBS), and allowed to pre-incubate for 1 h (100 μL per well in a 96-well plate, 30 μg total protein). The blocked ELISA plate was washed 2× with PBST (150 μL) and the pre-incubated lysates were added to the plate to incubate for 1 hour. The wells were washed 4× with PBST (150 μL), then probed with anti-myc primary antibody (1:1500 dilution for assays that include macrocyclic peptidomimetic ligand of the present disclosure and 1:3000 dilution for all other assays, mouse monoclonal, Pierce Biotechnology) for 1 hour. […] The wells were then washed 5× with PBST (150 μL) and incubated with Turbo TMB-ELISA solution (Pierce Biotechnology) until the desired absorbance is reached (5-10 minutes). The reaction was quenched by the addition of 2M aq. H2SO4 and the absorbance was measured at 450 nm using a BioTek Synergy 2 96-well plate reader.
Compounds were evaluated for inhibition of Plk1 PBD binding to a pThrcontaining peptide by ELISA in cell lysates and by inhibition of cell proliferation in HeLa cells. Pmab=2(S)-amino-3(R)-methyl-4-phosphonobutanoic acid.
Target sequence in this assay (P53350 326-603 limits assumed): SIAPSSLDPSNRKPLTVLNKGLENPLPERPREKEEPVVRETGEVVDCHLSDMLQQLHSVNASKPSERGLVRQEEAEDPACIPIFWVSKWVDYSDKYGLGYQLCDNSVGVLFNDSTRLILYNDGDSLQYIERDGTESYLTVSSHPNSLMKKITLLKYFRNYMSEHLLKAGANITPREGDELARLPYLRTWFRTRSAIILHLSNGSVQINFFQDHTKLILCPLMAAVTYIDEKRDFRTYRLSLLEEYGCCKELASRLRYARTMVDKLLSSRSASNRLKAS

full-length Plk1 = target: T2, full-length Plk1 (Homo sapiens, UniProt P53350); experiment: ELISA inhibition assay: full-length Plk1 binding to immobilized pThr-containing peptide; details: FIG. 5A/5B
T2 construct: Plasmids encoding full length Plk1 (Plasmid #41160); host or cells: HEK293T, crude cytosolic lysate

Plk1 PBD [2] = target: T1, Plk1 PBD; format: binding; design: host or cells: HEK293T, crude cytosolic lysate; details: average ± SEM from five independent experiments
Target sequence in this assay (P53350 whole entry): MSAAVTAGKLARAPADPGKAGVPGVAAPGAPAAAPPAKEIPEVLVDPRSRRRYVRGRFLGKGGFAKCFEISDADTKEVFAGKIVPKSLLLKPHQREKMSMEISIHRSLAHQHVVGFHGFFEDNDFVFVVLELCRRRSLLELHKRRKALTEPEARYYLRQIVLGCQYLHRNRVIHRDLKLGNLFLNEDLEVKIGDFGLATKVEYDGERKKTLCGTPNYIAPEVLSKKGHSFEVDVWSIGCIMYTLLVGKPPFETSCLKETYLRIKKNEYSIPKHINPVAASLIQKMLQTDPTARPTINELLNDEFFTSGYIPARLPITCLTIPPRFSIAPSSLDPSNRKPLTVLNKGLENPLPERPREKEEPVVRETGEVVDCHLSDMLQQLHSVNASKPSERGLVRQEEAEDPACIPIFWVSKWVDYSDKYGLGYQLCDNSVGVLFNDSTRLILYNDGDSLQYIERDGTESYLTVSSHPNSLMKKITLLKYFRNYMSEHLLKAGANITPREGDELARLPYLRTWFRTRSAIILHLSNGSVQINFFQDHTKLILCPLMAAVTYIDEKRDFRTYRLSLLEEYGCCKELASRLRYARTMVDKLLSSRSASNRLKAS
Method: All assay steps were performed at room temperature with gentle shaking. A biotinylated phosphopeptide (sequence: Biotin-Ahx-PMQS(pT)PLN-NH2) (46-48) was diluted with PBS 7.4 to 1 μM (from a 10 mM dimethylsulfoxide (DMSO) stock solution) and loaded onto the wells of a 96-well Neutravidin-coated plate (Pierce Biotechnology) at 100 μL per well for 1 hour. The wells were washed once with 150 μL PBST (PBS 7.4+0.05% Tween-20), and then 100 μL of 1% bovine serum albumin (BSA) in PBS 7.4 (blocking buffer) were added for 1 hour. The cytosolic lysate containing myc-tagged protein was diluted to 300 μg/mL in PBS 7.4 containing protease/phosphatase inhibitors (Pierce Biotechnology), mixed with competitive inhibitor (from a 10× stock in 5% DMSO/PBS), and allowed to pre-incubate for 1 h (100 μL per well in a 96-well plate, 30 μg total protein). […] The wells were then washed 5× with PBST (150 μL) and incubated with Turbo TMB-ELISA solution (Pierce Biotechnology) until the desired absorbance is reached (5-10 minutes). […] H2SO4 and the absorbance was measured at 450 nm using a BioTek Synergy 2 96-well plate reader.
Absorbance was plotted versus concentration (log M) and fit to a non-linear regression using GraphPad Prism 6 software (model: log(inhibitor) vs. response—Variable slope (four parameters)) to provide IC50 values. […]

[3] = Table 7, compounds 2 and 3 tested simultaneously for direct comparison

T2 sequence (P53350 whole entry): as above

SMILES | IC50 (Plk1 PBD [1]; [3]) | inhibitory potency in competitive ELISA versus parent peptide 1 (4j) (full-length Plk1) | other results
CC(=O)N1CCCC1C(=O)N[C@@H](CC(C)C)C(=O)N[C@@H](Cc1cncn1CCc1ccccc1)C(=O)N[C@@H](CO)C(=O)NC(C(N)=O)C(C)OP(=O)(O)O (stereo in doubt) [compound 3] | 0.023 µM |  | IC50 (Plk1 PBD [1]; Table 6): 0.017 µM
CC(=O)N1CCC[C@H]1C(=O)N[C@@H](CC(C)C)C(=O)N[C@H]1C[C@H](CCCCCCCCc2ccccc2)C(=O)NCCC[C@@H](C(N)=O)NC(=O)[C@H]([C@@H](C)OP=O)NC(=O)[C@H](CO)NC1=O (some centres unmarked) [15a, cPLE*SpTO] (HELM PEPTIDE1{[ac].P.L.[O=C([C@H](C[C@H](CCCCCCCCc1ccccc1)C(=O)[*:3])N[*:1])[*:2]].S.[C[C@@H](OP=O)[C@H](N[*:1])C(=O)[*:2]].[Orn].[am]}$PEPTIDE1,PEPTIDE1,4:R3-7:R3$$$V2.0) |  | improved potencies versus the parent peptide 1 | 
CC(=O)N1CCC[C@H]1C(=O)N[C@@H](CC(C)C)C(=O)N[C@H]1C[C@H](CCCCCCCCc2ccccc2)C(=O)NCCC[C@@H](C(N)=O)NC(=O)[C@H]([C@@H](C)OP=O)NC(=O)[C@H](CO)NC1=O (some centres unmarked) [15b, cPLE*SpTo] (HELM PEPTIDE1{[ac].P.L.[O=C([C@H](C[C@H](CCCCCCCCc1ccccc1)C(=O)[*:3])N[*:1])[*:2]].S.[C[C@@H](OP=O)[C@H](N[*:1])C(=O)[*:2]].[Orn].[am]}$PEPTIDE1,PEPTIDE1,4:R3-7:R3$$$V2.0) |  | dramatic reductions in potency | 
CC(=O)N1CCC[C@H]1C(=O)N[C@@H](CC(C)C)C(=O)N[C@H]1C[C@H](CCCCCCCCc2ccccc2)C(=O)NCCCC[C@@H](C(N)=O)NC(=O)[C@H]([C@@H](C)OP=O)NC(=O)[C@H](CO)NC1=O (some centres unmarked) [15c, cPLE*SpTK] (HELM PEPTIDE1{[ac].P.L.[O=C([C@H](C[C@H](CCCCCCCCc1ccccc1)C(=O)[*:3])N[*:1])[*:2]].S.[C[C@@H](OP=O)[C@H](N[*:1])C(=O)[*:2]].K.[am]}$PEPTIDE1,PEPTIDE1,4:R3-7:R3$$$V2.0) |  | improved potencies versus the parent peptide 1 | 
CC(=O)N1CCC[C@H]1C(=O)N[C@@H](CC(C)C)C(=O)N[C@H]1C[C@H](CCCCCCCCc2ccccc2)C(=O)NCCCC[C@H](C(N)=O)NC(=O)[C@H]([C@@H](C)OP=O)NC(=O)[C@H](CO)NC1=O (some centres unmarked) [15d, cPLE*SpTk] (HELM PEPTIDE1{[ac].P.L.[O=C([C@H](C[C@H](CCCCCCCCc1ccccc1)C(=O)[*:3])N[*:1])[*:2]].S.[C[C@@H](OP=O)[C@H](N[*:1])C(=O)[*:2]].[dK].[am]}$PEPTIDE1,PEPTIDE1,4:R3-7:R3$$$V2.0) |  | dramatic reductions in potency | 
CC(=O)N1CCC[C@H]1C(=O)N[C@@H](CC(C)C)C(=O)N[C@@H](Cc1cncn1CCCCCCCCc1ccccc1)C(=O)N[C@@H](CO)C(=O)N[C@H](C(N)=O)[C@@H](Cc1ccccc1)CP(=O)(O)O [18d] (HELM PEPTIDE1{[ac].P.L.[O=C([C@H](Cc1cncn1CCCCCCCCc1ccccc1)N[*:1])[*:2]].S.[O=C([C@@H](N[*:1])[C@@H](Cc1ccccc1)CP(=O)(O)O)[*:2]].[am]}$$$$V2.0; N-terminus assumed) |  |  | IC50 (Plk1 PBD [2]): 300 ± 80 nM
CC(=O)N1CCC[C@H]1C(=O)N[C@@H](CC(C)C)C(=O)N[C@@H](Cc1cncn1CCCCCCCCc1ccccc1)C(=O)N[C@@H](CO)C(=O)N[C@H](C(N)=O)[C@@H](CCc1ccccc1)CP(=O)(O)O [18e] (HELM PEPTIDE1{[ac].P.L.[O=C([C@H](Cc1cncn1CCCCCCCCc1ccccc1)N[*:1])[*:2]].S.[O=C([C@@H](N[*:1])[C@@H](CCc1ccccc1)CP(=O)(O)O)[*:2]].[am]}$$$$V2.0; N-terminus assumed) |  |  | IC50 (Plk1 PBD [2]): 70 ± 20 nM
CC(=O)N1CCCC1C(=O)N[C@@H](CC(C)C)C(=O)N[C@@H](Cc1cncn1CCc1ccccc1)C(=O)N[C@@H](CO)C(=O)NC(C(N)=O)C(C)CP(=O)(O)O (some centres unmarked) [compound 4] |  |  | IC50 (Plk1 PBD [1]; Table 6): 0.02 µM
CC(=O)N1CCCC1C(=O)N[C@@H](CC(C)C)C(=O)N[C@@H](Cc1cnc[nH]1)C(=O)N[C@@H](CO)C(=O)NC(C(N)=O)[C@@H](Cc1ccccc1)CP(=O)(O)O (some centres unmarked) [compound 15] (HELM PEPTIDE1{[ac].[O=C(C1CCCN1[*:1])[*:2]].L.H.S.[O=C(C(N[*:1])[C@@H](Cc1ccccc1)CP(=O)(O)O)[*:2]].[am]}$$$$V2.0) | 50 µM |  | 
CC(=O)N1CCCC1C(=O)N[C@@H](CC(C)C)C(=O)N[C@@H](Cc1cncn1CCc1ccccc1)C(=O)N[C@@H](CO)C(=O)NC(C(N)=O)[C@@H](Cc1ccccc1)CP(=O)(O)O (some centres unmarked) [compound 16] | 0.035 µM |  | 
